Values quoted from earlier work, collected in patent US20100272830A1, “Biocide Combination for use in Agricultural Applications” (Industrie De Nora S.p.A., priority 2008, published 2010).
Like-named read-outs stand apart in the source and are kept apart here.

For OCl [Hypochlorous acid (HClO), Hypochlorous acid], the “HClO, % of total hypochlorite concentration” value (“HClO, %” below) (pH 5, 25° C.) is given as 99.7%, the “HClO, %” value (pH 6, 25° C.) is given as 96.9% and the “HClO, %” value (pH 7, 25° C.) is given as 76.0%. For the same compound, the “HClO, %” value (pH 8, 25° C.) was 24%, the “HClO, %” value (pH 9, 25° C.) was 3.1% and the “HClO, %” value (pH 10, 25° C.) was 0.31%. For the same compound, the “HClO, %” value (pH 11, 25° C.) was 0.03% and the “HClO, %” value (pH 12, 25° C.) was 0.003%.
